Test results taken from the supplement of paper PMC10307832.

Legend:
Test in all cases: relative viability (nuclei count vs DMSO), 5 days (fraction); higher = more cells survive
[1] = compound: CC[C@H](CO)Nc1nc(NCc2ccccc2)c2ncn(C(C)C)c2n1 [Seliciclib] + COc1cc2c(Oc3ccc(NC(=O)C4(C(=O)Nc5ccc(F)cc5)CC4)cc3F)ccnc2cc1OCCCN1CCOCC1 [Foretinib] (partner 0.25 µM)
Procedure, shortened: (§1)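 After 5 days of treatment, lung cancer cells in 1536-well plates were fixed and stained in a single step (final 0.05% Triton X-100, 1% formaldehyde, 1 ug/ml Hoechst) and their nuclei counted on 4× images. Treatment had been applied by pin tool the day after seeding as one drug alone or as a fixed anchor-drug dose with five library-drug doses (not always all listed) in √10 steps. Relative viability is the nuclei count of treated wells divided by that of vehicle wells, and values are medians of duplicate plates.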

[2] = compound: CC[C@H](CO)Nc1nc(NCc2ccccc2)c2ncn(C(C)C)c2n1 [Seliciclib] + Nc1nc2[nH]cc(CCc3ccc(C(=O)N[C@@H](CCC(=O)O)C(=O)O)cc3)c2c(=O)[nH]1 [Pemetrexed] (partner 0.2 µM)
Procedure, shortened: as §1

[3] = compound: CC[C@H](CO)Nc1nc(NCc2ccccc2)c2ncn(C(C)C)c2n1 [Seliciclib] + COc1cccc2cc(-c3nc([C@H]4CC[C@H](C(=O)O)CC4)n4ncnc(N)c34)[nH]c12 [OSI-027] (partner 0.5 µM)
Procedure, shortened: as §1

[4] = compound: CC[C@H](CO)Nc1nc(NCc2ccccc2)c2ncn(C(C)C)c2n1 [Seliciclib] + NC(=O)Nc1cc(-c2cccc(F)c2)sc1C(=O)N[C@H]1CCCNC1 [AZD7762] (partner 0.2 µM)
Procedure, shortened: as §1

Cell Line	relative viability ([1]; first compound 0.08 µM)	relative viability ([1]; first compound 0.253 µM)	relative viability ([1]; first compound 0.8 µM)	relative viability ([1]; first compound 2.53 µM)	relative viability ([1]; first compound 8 µM)	relative viability ([2]; first compound 0.08 µM)	relative viability ([2]; first compound 0.253 µM)	relative viability ([2]; first compound 0.8 µM)	relative viability ([2]; first compound 2.53 µM)	relative viability ([2]; first compound 8 µM)	relative viability ([3]; first compound 0.08 µM)	relative viability ([3]; first compound 0.253 µM)	relative viability ([3]; first compound 0.8 µM)	relative viability ([3]; first compound 2.53 µM)	relative viability ([3]; first compound 8 µM)	relative viability ([4]; first compound 0.08 µM)	relative viability ([4]; first compound 0.253 µM)	relative viability ([4]; first compound 0.8 µM)	relative viability ([4]; first compound 2.53 µM)	relative viability ([4]; first compound 8 µM)
A-427	1.06	1.11	0.944	1.28	1.17	1.01	1.01	1.03	0.963	0.917	0.419	0.615	0.442	0.331	0.401	0.763	0.912	0.853	1.13	0.998
H3255	0.808	1.01	0.51	0.806	0.895	0.555	0.624	0.639	0.471	0.534	0.596	0.642	0.626	0.532	0.579	0.811	0.848	0.951	0.839	0.823
NCI-H1734	0.809	0.702	0.802	0.793	0.738	0.417	0.35	0.432	0.448	0.416	0.513	0.413	0.565	0.435	0.452	0.533	0.43	0.584	0.561	0.642
NCI-H1993	0.742	0.722	0.723	0.694	0.756	0.601	0.597	0.608	0.507	0.456	0.574	0.529	0.521	0.556	0.518	0.778	0.739	0.843	0.662	0.63
NCI-H1437	1.2	1.31	1.26	1.31	1.18	0.32	0.358	0.333	0.315	0.306	0.844	0.877	0.99	0.52	0.787	1.06	1.19	1.17	0.999	1.08
201T	0.915	1.13	1.07	–	1.04	0.379	0.357	0.382	0.27	0.323	0.815	0.708	0.857	0.467	0.688	0.578	0.534	0.69	0.622	0.734
NCI-H1944	0.881	0.866	0.829	0.9	0.554	0.575	0.634	0.453	0.608	0.428	0.442	0.343	0.376	0.26	0.341	0.521	0.473	0.503	0.584	0.636
ChaGo-K-1	0.877	0.862	0.892	0.979	0.823	0.25	0.253	0.264	0.251	0.251	0.663	0.367	0.587	0.356	0.451	0.875	0.511	0.895	0.918	0.892
LOU-NH91	0.9	0.904	0.885	0.905	0.739	–	0.394	0.367	0.44	0.393	0.741	0.693	0.674	0.592	0.644	–	0.715	0.794	0.702	0.569
HOP-62	1.17	1.18	1.1	1.17	0.993	0.285	0.326	0.383	0.339	0.351	0.891	0.705	0.952	0.57	0.777	0.63	0.407	0.394	0.923	0.822
NCI-H1915	1.09	1.15	1.05	1.09	0.815	0.483	0.483	0.492	0.604	0.514	0.643	0.636	0.495	0.536	0.423	0.714	0.591	0.826	0.817	0.717
NCI-H3122	1.03	–	0.938	0.983	0.786	0.207	0.211	0.177	0.205	0.228	0.979	0.53	0.769	0.744	0.778	0.935	0.939	0.915	0.959	0.897
NCI-H1651	0.583	0.754	0.819	0.857	0.75	0.518	0.591	0.61	0.388	0.561	0.654	0.815	0.651	0.542	0.543	0.474	0.464	0.488	0.504	0.673
NCI-H838	0.902	0.928	0.998	1.11	0.808	0.246	0.28	0.242	0.263	0.239	0.425	0.44	0.325	0.247	0.292	0.922	0.966	0.877	0.939	0.861
NCI-H596	0.849	–	0.843	0.68	0.65	0.484	–	0.534	0.557	0.51	0.784	–	0.607	0.812	0.657	1.12	–	1.17	1.19	0.993
NCI-H441	0.791	0.86	0.969	0.93	0.623	0.232	0.246	0.228	0.249	0.276	0.794	0.582	0.645	0.335	0.423	1.1	1.09	0.979	1.28	0.994
NCI-H650	1.03	1.03	0.912	0.842	0.856	1.06	0.905	1.07	0.73	0.825	0.539	0.497	0.651	0.313	0.495	1.15	0.863	1.26	0.947	1.07

Cell Line	relative viability ([1]; first compound 0.08 µM)	relative viability ([1]; first compound 0.253 µM)	relative viability ([1]; first compound 0.8 µM)	relative viability ([1]; first compound 2.53 µM)	relative viability ([1]; first compound 8 µM)	relative viability ([2]; first compound 0.08 µM)	relative viability ([2]; first compound 0.253 µM)	relative viability ([2]; first compound 0.8 µM)	relative viability ([2]; first compound 2.53 µM)	relative viability ([2]; first compound 8 µM)	relative viability ([3]; first compound 0.08 µM)	relative viability ([3]; first compound 0.253 µM)	relative viability ([3]; first compound 0.8 µM)	relative viability ([3]; first compound 2.53 µM)	relative viability ([3]; first compound 8 µM)	relative viability ([4]; first compound 0.08 µM)	relative viability ([4]; first compound 0.253 µM)	relative viability ([4]; first compound 0.8 µM)	relative viability ([4]; first compound 2.53 µM)	relative viability ([4]; first compound 8 µM)
NCI-H2170	0.936	0.934	1.01	1.09	0.968	0.269	–	0.262	0.268	0.26	0.754	0.639	0.724	0.691	0.708	0.841	–	0.877	0.979	0.921
NCI-H1355	0.95	0.976	0.706	1.03	0.93	0.945	0.922	1.02	1.02	0.962	0.462	0.303	0.372	0.288	0.39	0.805	0.623	0.799	0.832	0.975
NCI-H2347	1.18	1.23	0.938	–	0.738	0.409	0.454	0.419	0.437	0.42	0.431	0.475	0.452	0.339	0.343	0.817	0.759	0.745	0.763	0.865
LCLC-97TM1	0.936	0.952	0.961	0.793	0.72	0.206	0.148	0.192	0.135	0.135	0.442	0.424	0.714	0.108	0.182	0.232	0.258	0.432	–	0.392
EMC-BAC-2	1.02	0.94	0.955	1.02	0.909	0.417	0.476	0.547	0.468	0.508	0.401	0.317	0.43	0.253	0.347	1.2	1.21	1.25	0.794	0.946
NCI-H1975	1	0.977	0.894	0.932	0.748	0.274	0.328	0.281	0.331	0.267	0.845	0.545	0.839	0.525	0.624	0.684	0.628	0.741	0.613	0.758
NCI-H2342	0.91	0.882	1.06	1.14	0.935	0.748	0.779	0.752	0.693	0.711	0.565	0.657	0.581	0.505	0.574	0.565	0.509	0.486	0.404	0.427
BEN	0.615	0.576	0.746	0.621	0.592	0.805	0.676	0.67	0.611	0.63	0.295	0.287	0.343	0.309	0.276	0.808	0.584	0.694	0.672	0.61
NCI-H23	0.977	1.09	0.96	0.88	0.592	0.715	0.72	0.619	0.337	0.489	0.645	0.408	0.652	0.267	0.505	0.25	0.292	0.424	0.258	0.468
CAL-12T	1.16	1.48	1.26	1.21	0.731	1.16	0.949	1.2	1.06	1.01	0.746	0.504	0.763	0.321	0.357	0.509	0.772	0.71	0.707	0.729
EPLC-272H	0.707	0.72	0.56	0.623	0.494	0.326	0.357	0.274	0.329	0.229	0.328	0.271	0.265	0.225	0.265	0.203	0.17	0.208	0.329	0.347
LCLC-103H	0.812	0.878	0.708	0.739	0.589	0.377	0.439	0.514	0.456	0.494	0.452	0.47	0.456	0.319	0.487	0.793	0.676	0.65	0.696	0.74
NCI-H2405	1.06	1.16	1.07	0.836	0.939	1.05	1.23	1.07	0.825	0.83	0.616	0.669	0.689	0.291	0.555	0.8	0.757	0.831	0.584	0.648
HCC-15	1.06	1.13	0.968	0.959	0.724	0.221	0.223	0.219	0.218	0.226	0.691	0.757	0.584	0.427	0.442	1.09	1.37	1.22	1.19	1.02
PC-3 [JPC-3]	1.07	1.09	0.997	0.997	0.809	1.11	1.17	1.08	0.995	0.968	0.727	0.761	0.716	0.65	0.672	0.994	1	0.77	0.617	0.718
HARA	0.95	1.06	0.943	0.982	0.714	0.238	0.28	0.244	0.227	0.21	0.496	0.22	0.378	0.377	0.325	0.348	0.293	0.381	0.596	0.908
